# Patent publication US6608176B2, “Taste receptor for umami (monosodium glutamate) taste” (University of Miami, priority 2000, dated 2003)
# Read-outs that look alike come from different tables or passages of the source.
# What was measured:
# taste-mGluR4 = biological target: T1, taste-mGluR4 (Rattus norvegicus, UniProt P31423); assay: Suppression of forskolin-stimulated cAMP in CHO cells stably expressing taste-mGluR4; assay type: cell-based
# T1 construct: expressed in transfected cells
# Description: (§1) CHO cells were transfected with brain-mGluR4 and taste-mGluR4 constructs and with non-recombinant pcDNA3.1 vector, all in parallel, using a cationic lipid, DMRIE-C (Gibco-BRL). Cells with stably integrated plasmid were selected and maintained in 300 μg per ml G418 starting 24 h after transfection. The medium consisted of Dulbecco's Modified Eagle Medium (D-MEM) supplemented with 10% fetal bovine serum, 2 mM glutamine, 1.7 mM proline and 100 units per ml penicillin-streptomycin^35. Clones were lifted within two weeks and screened for expression by western blot analysis. A single clone for each form was propagated for functional assays. Stably transfected but non-clonal lines of cells from independent transfections with both forms of mGluR4 and non-recombinant vector were also maintained and used in functional assays.
# (§2) CHO cells, stably transfected with brain-mGluR4, taste-mGluR4 or non-recombinant pcDNA3.1, were maintained as sub-confluent cultures and refed every two days to minimize chronic stimulation of expressed receptors by glutamate released from dead cells. Cells were plated 20 h before assay in a 96-well microtiter plate at 2×10^4 cells per 200 μl well. Fresh medium was replaced for one hour immediately before assaying receptor function as described^35. Briefly, cells were incubated in Dulbecco's phosphate buffered saline containing 1 mM IBMX for 20 min followed by stimulation for 10 min in 10 μM forskolin and 1 mM IBMX, with or without agonists. Stimulation buffer was rapidly removed, and cells were lysed in 200 μl 0.25% dodecyltrimethyl-ammonium bromide in 50 mM acetate buffer (Amersham, Piscataway, N.J.). Released cAMP in 20% of each lysate was assayed directly using an Amersham EIA-based kit and plotted as mean±s.e. of 3-6 experiments, each performed with triplicate wells of cells.
# (§3) In transfected CHO cells, activation of group III mGluRs leads to a suppression of forskolin-stimulated cAMP synthesis^35. […] Thus, two separate lines of CHO cells expressing taste-mGluR4 were examined.
# brain-mGluR4 [1] = biological target: T2, brain-mGluR4 (Rattus norvegicus, UniProt P31423); assay: Suppression of forskolin-stimulated cAMP in CHO cells stably expressing brain-mGluR4; assay type: cell-based
# T2 construct: Full-length cDNAs for brain-mGluR4 and taste-mGluR4 were reconstructed; expressed in transfected cells
# Description: as §1, §2, §3
# [2] = system: glossopharyngeal nerve / sensory afferents; details: cited from earlier work
# [3] = system: CHO cells transfected with non-recombinant pcDNA3.1 vector; assay: cAMP level in control CHO cells transfected with non-recombinant vector; assay type: cell-based, Chinese hamster; details: for cAMP level relative to controls: n=9; for change of cAMP concentration in control cells: non-recombinant vector
# Description: as §1, §2
# brain-mGluR4 [4] = biological target: T2, brain-mGluR4; details: cited from earlier work
# chorda tympani nerve = chorda tympani nerve recordings; cited from earlier work
# MSG taste detection = details: rats, behavioral assays; cited from earlier work
# T1 sequence (P31423 309-912): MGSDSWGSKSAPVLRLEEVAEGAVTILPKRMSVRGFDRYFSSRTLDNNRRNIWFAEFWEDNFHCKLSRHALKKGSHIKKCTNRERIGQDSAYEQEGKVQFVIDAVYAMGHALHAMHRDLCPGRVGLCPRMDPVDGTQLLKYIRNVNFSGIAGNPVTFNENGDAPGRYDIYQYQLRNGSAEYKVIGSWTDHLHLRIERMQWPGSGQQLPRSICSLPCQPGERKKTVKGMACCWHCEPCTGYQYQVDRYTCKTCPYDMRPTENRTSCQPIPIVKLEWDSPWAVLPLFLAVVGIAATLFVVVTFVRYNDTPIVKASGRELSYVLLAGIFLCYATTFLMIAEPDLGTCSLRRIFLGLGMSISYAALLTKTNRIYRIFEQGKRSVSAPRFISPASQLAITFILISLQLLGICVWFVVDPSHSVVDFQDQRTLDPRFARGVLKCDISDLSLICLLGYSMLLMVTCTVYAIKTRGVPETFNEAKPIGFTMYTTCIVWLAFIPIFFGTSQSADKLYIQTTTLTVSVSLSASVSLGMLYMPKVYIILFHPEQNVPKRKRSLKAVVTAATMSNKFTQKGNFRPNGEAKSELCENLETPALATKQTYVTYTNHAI
# T2 sequence (P31423 33-912): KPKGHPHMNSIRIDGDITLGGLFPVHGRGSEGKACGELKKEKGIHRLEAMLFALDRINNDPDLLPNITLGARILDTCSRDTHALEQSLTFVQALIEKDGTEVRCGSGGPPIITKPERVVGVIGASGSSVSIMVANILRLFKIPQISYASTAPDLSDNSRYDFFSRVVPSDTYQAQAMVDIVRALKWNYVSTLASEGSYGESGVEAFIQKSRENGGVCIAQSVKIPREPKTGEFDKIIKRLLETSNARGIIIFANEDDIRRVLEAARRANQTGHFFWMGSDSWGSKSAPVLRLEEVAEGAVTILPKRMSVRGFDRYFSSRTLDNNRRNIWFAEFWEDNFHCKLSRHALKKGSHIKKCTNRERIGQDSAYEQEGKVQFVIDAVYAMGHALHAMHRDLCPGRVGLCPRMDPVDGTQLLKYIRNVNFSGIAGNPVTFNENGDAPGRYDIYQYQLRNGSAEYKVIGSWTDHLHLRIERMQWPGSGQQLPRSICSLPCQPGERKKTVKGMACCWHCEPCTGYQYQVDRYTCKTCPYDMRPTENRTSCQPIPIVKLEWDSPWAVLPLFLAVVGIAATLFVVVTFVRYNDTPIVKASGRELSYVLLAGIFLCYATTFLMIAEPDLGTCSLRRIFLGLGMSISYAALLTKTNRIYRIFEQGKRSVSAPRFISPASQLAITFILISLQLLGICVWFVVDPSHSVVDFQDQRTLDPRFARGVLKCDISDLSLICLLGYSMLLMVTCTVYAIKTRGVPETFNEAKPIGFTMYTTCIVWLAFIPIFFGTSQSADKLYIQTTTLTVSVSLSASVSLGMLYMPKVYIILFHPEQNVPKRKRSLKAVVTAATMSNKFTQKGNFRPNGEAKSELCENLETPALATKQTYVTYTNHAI
smiles,measurement,setting,value
N[C@@H](CCC(=O)O)C(=O)O [L-glutamate],threshold concentration for activating taste-mGluR4,taste-mGluR4; CHO cells expressing taste-mGluR4,30 µM
same,EC50,"taste-mGluR4; CHO cells expressing taste-mGluR4, 10 μM forskolin, 1 mM IBMX, read-out: EC50 for L-glutamate for taste-mGluR4",280 µM
same,concentration needed for taste mGluR4 relative to brain-derived neurotransmitter mGluR4,"taste-mGluR4; CHO cells, taste vs brain mGluR4",about 100 fold
same,cAMP response,taste-mGluR4; at concentrations of 30 μM or below,no response
same,EC50,"taste-mGluR4; line with expression 2-fold lower than parallel brain-mGluR4 line, read-out: EC50, taste-mGluR4 CHO line",250 µM
same,EC50,"taste-mGluR4; line with expression 100-fold lower than parallel brain-mGluR4 line, read-out: EC50, taste-mGluR4 CHO line",300 µM
same,EC50,"brain-mGluR4 [1]; CHO cells stably expressing brain-mGluR4, 10 μM forskolin, 1 mM IBMX",2 µM
same,taste nerve threshold,[2]; adult mice and rats,2 to 10 mM
same,threshold for glutamate taste responses in the glossopharyngeal nerve,[2]; juvenile mice,100 µM
same,cAMP level relative to controls,[3]; 1 mM,127±16%
same,cAMP level relative to controls,[3]; 10 mM,132±19%
same,EC50,"brain-mGluR4 [4]; mGluR4a, literature ref 35, read-out: EC50 on mGluR4a, earlier reports",5 µM
C[C@](N)(CCP(=O)(O)O)C(=O)O [MAP4],block of taste nerve responses to glutamate and L-AP4,chorda tympani nerve,fails to block
"N[C@@H](CCC(=O)O)C(=O)[O-].[Na+] [L-MSG, monosodium L-glutamate]",detection threshold in recordings from sensory afferents,[2]; adult rodents,1 to 3 mM
same,detection threshold in recordings from sensory afferents,[2]; juvenile rodents,0.1 to 0.3 mM
N[C@H](CCC(=O)O)C(=O)O [D-glutamate],cAMP level relative to controls,"taste-mGluR4; 1 MM D-glutamate, taste-mGluR4 cells",99±3%
same,cAMP level relative to controls,"brain-mGluR4 [1]; 1 MM D-glutamate, brain-mGluR4 cells",126±17%
same,change of cAMP concentration in control cells,[3],did not alter cAMP concentrations
NC(CCP(=O)(O)O)C(=O)O [L-AP4],concentration near the MSG taste detection threshold,MSG taste detection,~100 µM
same,cAMP response,taste-mGluR4; 10 μM L-AP4,no response
same,cAMP response,taste-mGluR4; 100 μM and 1 mM L-AP4,progressively larger responses
same,concentration above which the cAMP response saturates,"brain-mGluR4 [1]; brain-mGluR4 CHO cells, FIG. 4",above 10 μM
same,change of cAMP concentration in control cells,[3],did not change
same,EC50,"brain-mGluR4 [4]; brain mGluR4, literature ref 35, read-out: published EC50",0.5 to 1 µM
